Experimental data reported in patent publication US11413278B2, “Compounds and methods for promoting stress resistance” (priority 2015, dated 2022).
Like-named read-outs stand apart in the source and are kept apart here.

Columns and labels:
[1] = tested on: LC3A/B puncta; experiment: Autophagy induction analysis (LC3A/B puncta immuno-staining); assay type: cell-based, human; settings: for Assay 15: Potential autophagy induction by LC3A/B puncta assays: 10 uM & 20 uM, YES/NO; for Exp. 2, normalized change of nuclei numbers (Less cells): 20X objective, lysosomal LAMP co-staining
Outline: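 WI-38 cells were treated with compounds for 24 hrs, then immunostained for LC3A/B (overnight, 4° C) with DAPI counterstain and imaged by high-content microscopy. Experiment 1 used total puncta intensity. Experiment 2 used LAMP2-colocalized (lysosomal) puncta. Intensity was normalized to nuclei count.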

[2] = tested on: PC12 cells expressing poly(Q)103-Htt-EGFP; experiment: Poly(Q) toxicity & viability analysis (cellular model of Huntington's disease); assay type: cell-based, rat; settings: for M = Huntington's poly-Q toxicity attenuation: score; for K = Huntington's poly-Q toxicity attenuation: summary score
Outline: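 PC12 cells stably carrying inducible poly(Q)103-Htt-EGFP, whose induced expression causes aggregation and toxicity. Viability read 48 hrs later as ATP content by CellTiter-Glo.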

[3] = tested on: C. elegans; experiment: C. elegans lifespan assays (liquid and plate); assay type: in vivo, Caenorhabditis elegans; settings: for ILS at 60 µM / ILS at 66 µM: Caenorhabditis elegans; for O = Life span- extending scores in worms: score scale 0 to 2, 4 to 6 independent trials; for M = Lifespan-extending scores in worms: summary score; for Extension of C. elegans' lifespan (qualitative): in at least 3 to 4 trials, group range ~10% to ~50%; for Trials with lifespan extension: positive of total trials
[4] = Summary score for characterization of 38 core set hits; settings: for D = Triple resistant: 2-point score, multiplex resistance (cadmium, MMS, H2O2); for S = Sum of Negative scores: human; for C = H2O2- & Cd-resistant: score, resistance to both H2O2 and cadmium
Outline: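 Scoring awards 2 points per prominent longevity phenotype: resistance to multiple stresses, activation of FOXO3 and/or NRF2, reduced mTOR. Molecules with apparent DNA-damaging activity or cell toxicity in cultured human cells receive a negative point.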

[5] = 60 μM, in liquid, wild type, with FuDR, 1.0 × 10^9 bacteria/ml, read-out: relative change of mean lifespan vs control, Trial 1
[6] = 60 μM, in liquid, wild type, with FuDR, 2.5 × 10^9 bacteria/ml, read-out: relative change of mean lifespan vs control, Trial 2
[7] = 60 μM, on plate, CF512 temperature-sensitive sterile animals, without FuDR, 1.0 × 10^11 bacteria/ml, read-out: relative change of mean lifespan vs control, Trial 4
[8] = 60 μM, on plate, CF512 temperature-sensitive sterile animals, without FuDR, 2.0 × 10^10 bacteria/ml, read-out: relative change of mean lifespan vs control, Trial 3
[9] = Assay 2(z), 1.0 × 10^9 bacteria/ml, wild type + FuDR (2012 July), read-out: Lifespan assay in liquid
[10] = Assay 3(aa), 2.5 × 10^9 bacteria/ml, wild type + FuDR, read-out: Lifespan assay in liquid
[11] = Assay 4(ab), 2.0 × 10^10 bacteria/ml, CF512 worms, no FuDR, read-out: Lifespan assay on plates
[12] = Assay 5(ac), 1.0 × 10^11 bacteria/ml, CF512 worms, no FuDR, read-out: Lifespan assay on plates
[13] = Exp. 1, 10 μM, 10X objective, WI-38 cells

Compound	H = Potential Autophagy Induction ([1]; score)	H = Potential Autophagy Induction ([1]; summary score)	M = Huntington's poly-Q toxicity attenuation [2]	K = Huntington's poly-Q toxicity attenuation [2]	ILS at 60 µM [3, 5] [%]	ILS at 60 µM [3, 6] [%]	ILS at 60 µM [3, 7] [%]	ILS at 60 µM [3, 8] [%]	ILS at 66 µM [3, 9] [%]	ILS at 66 µM [3, 10] [%]	ILS at 66 µM [3, 11] [%]	ILS at 66 µM [3, 12] [%]	O = Life span- extending scores in worms [3]	M = Lifespan-extending scores in worms [3]	D = Triple resistant [4]	S = Sum of Negative scores [4]	C = H2O2- & Cd-resistant [4]	Extension of C. elegans' lifespan (qualitative) [3]	also measured
O=C(/C=C/c1cn(-c2ccccc2)nc1-c1cccnc1)c1ccccc1 [Gr-6B]	0	0	1	1	3	0.2	-1.3	20.6	3	0.2	20.6	-1.3	0	0	0	0	1		Viability of PC12 cells upon induction of toxic poly(Q)103-Htt-EGFP aggregates ([2]; 2.5 μM, 5 μM, 10 μM and 20 μM): consistently increased the viability; Assay 20: Huntington's poly-Q toxicity attenuation ([2]; 10 uM, YES/NO): YES
CCCC(=O)Nc1ccc(-c2cn3cccc(C)c3n2)cc1 [O12]	0	0	0	0	36.8	9.6		6.6	36.8	9.6	6.6		2 (2 for observed in more than 2 trials)	2 (2 for observed in more than 2 trials)	0	0	1	could extend animal's lifespan	
O=[N+]([O-])c1ccccc1S(=O)(=O)Nc1cccc2cccnc12 [Gr-3A]	0	0	0	0					33.4	14.2	16.3	8.4	2 (2 for observed in more than 2 trials)	2 (2 for observed in more than 2 trials)	0	1	1	could extend animal's lifespan	
O=C(Nc1cccc(Cl)c1)c1ccc([N+](=O)[O-])o1 [Gr-1D]	1	1	0	0	18.2	-0.5		10.5	18.2	-0.5	10.5		1 (1 for lifespan extension observed in 2 trials)	1 (1 for lifespan extension observed in 2 trials)	0	1	1		Assay 15: Potential autophagy induction by LC3A/B puncta assays [1]: YES; Exp. 1, induction of LC3A/B puncta (Up), total intensity normalized by total number of nuclei in the fields [1, 13]: p < 0.05; Up, 617%,; Exp. 1, normalized change of nuclei numbers (Less cells) [1, 13]: Less cells, 67%,; Exp. 2, normalized change of nuclei numbers (Less cells) ([1]; Exp. 2, 10 μM, WI-38 cells): Less cells, 67%,; Exp. 2, normalized change of nuclei numbers (Less cells) ([1]; Exp. 2, 20 μM, WI-38 cells): Less cells, 73%,
O=C(/C(=C/c1ccc(Cl)cc1)c1nc2ccccc2[nH]1)c1ccccc1 [Gr-4D]	0	0	0	0	50.8	9	11.3	22.2	50.8	9	22.2	11.3	2 (2 for observed in more than 2 trials)	2 (2 for observed in more than 2 trials)	0	0	1	could extend animal's lifespan	relative change of mean lifespan vs control, Trial 6 (confirmative) ([3]; 60 μM, on plate, temperature-sensitive sterile animals, without FuDR, 1.0 × 10^11 bacteria/ml): +11.1%; relative change of mean lifespan vs control, Trial 5 (confirmative) ([3]; 60 μM, on plate, temperature-sensitive sterile animals, without FuDR, 2.0 × 10^10 bacteria/ml): +39.4%; Lifespan, average increase ([3]; 4 or more trials): 24.0%; ILS at 66 µM ([3]; Assay 6(ad), 2.0 × 10^10 bacteria/ml, CF512 worms, no FuDR, read-out: Lifespan assay on plates): 39.4%; ILS at 66 µM ([3]; Assay 7(ae), 1.0 × 10^11 bacteria/ml, CF512 worms, no FuDR, read-out: Lifespan assay on plates): 11.1%; Lifespan extension of C. elegans ([3]; across independent trials): ≤ 50%; Trials with lifespan extension [3]: 4 of 4; Lifespan, mean (FIG. 6B) ([3]; temperature-sensitive sterile rollers, on plate, without FuDR, 25° C. then ~22° C., control 18.4±0.4): 22.5±0.4; Lifespan increase (FIG. 6A) ([3]; wild-type, in liquid, with FuDR, 20° C., ~60 μM): ~51.2%; Lifespan, mean±SD (FIG. 6A) ([3]; wild-type, in liquid, with FuDR, 20° C., ~60 μM, control 21.1±0.5): 31.9±1.1
CCCN1C/C(=C\c2ccc(F)cc2)C(=O)/C(=C/c2ccc(F)cc2)C1 [O15]	0	0	0	0	38	6.6		14.6	38	6.6	14.6		1 (1 for lifespan extension observed in 2 trials)	1 (1 for lifespan extension observed in 2 trials)	0	0	0		
COc1cccc(/C=C2\CN(C)C/C(=C\c3cccc(OC)c3OC)C2=O)c1OC [O23]	1	1	0	0	36.2	17.4	-0.3	21.6	36.2	17.4	21.6	-0.3	2 (2 for observed in more than 2 trials)	2 (2 for observed in more than 2 trials)	0	1	0	could extend animal's lifespan	Assay 15: Potential autophagy induction by LC3A/B puncta assays [1]: YES; Trials with lifespan extension [3]: 3 of 4
